Measured values as given in patent US20020049250A1, “PPAR receptor activator compounds for treating cutaneous disorders/afflictions” (priority 1999, published 2002).

Assays:
Format in all cases: cell-based
PPAR-β = target: T1, PPAR-β (Homo sapiens, UniProt Q03181); experiment: PPAR-type receptor transactivation test (luciferase reporter), PPAR-β; details: for % activation β / AC50: cotransfected HeLa cells treated 24 hours; for % activation β: luciferase activity, relative to reference molecule Reference 2; for Emax: HeLa, 24 h, read-out: % activation β; for AC50: luciferase, concentration giving 50% of the activity of reference molecule
T1 construct: expressed in transfected cells; host or cells: HeLa cells
T1 sequence (Q03181 1-441): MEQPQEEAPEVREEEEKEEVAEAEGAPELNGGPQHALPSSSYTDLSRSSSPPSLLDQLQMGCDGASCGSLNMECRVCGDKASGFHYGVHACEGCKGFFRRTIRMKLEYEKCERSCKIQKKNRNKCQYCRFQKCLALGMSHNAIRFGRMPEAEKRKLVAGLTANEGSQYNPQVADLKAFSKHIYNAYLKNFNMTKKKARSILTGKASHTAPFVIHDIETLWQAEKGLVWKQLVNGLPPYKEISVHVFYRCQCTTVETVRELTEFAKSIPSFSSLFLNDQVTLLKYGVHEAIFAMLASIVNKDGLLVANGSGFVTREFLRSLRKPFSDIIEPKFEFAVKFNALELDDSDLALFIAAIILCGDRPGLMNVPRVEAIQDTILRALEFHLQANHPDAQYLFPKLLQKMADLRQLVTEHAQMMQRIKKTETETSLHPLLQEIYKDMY
Method: (§1) This activity is determined with the aid of a reporter enzyme (luciferase) for activation due to the compound via one of the PPAR receptors.
(§2) The biological tests carried out correspond to those described above. […] Thus, the activating power via PPAR-α, PPAR-γ or PPAR-δ of molecules may be evaluated with a transactivation test in which HeLa cells were cotransfected with an expression vector encoding these receptors and a reporter plasmid containing a PPRE response element cloned upstream of part of an SV40 virus promoter and of the luciferase gene. The cotransfected cells were treated for 24 hours with the molecules to be tested and the luciferase activity was determined by luminescence.

PPAR-α = target: T2, PPAR-α (Homo sapiens, UniProt Q07869); experiment: PPAR-type receptor transactivation test (luciferase reporter), PPAR-α; details: for % activation α / AC50: cotransfected HeLa cells treated 24 hours; for % activation α: luciferase activity, relative to reference molecule Reference 1; for Emax: HeLa, 24 h, read-out: % activation α; for AC50: luciferase, concentration giving 50% of the activity of reference molecule
T2 construct: expressed in transfected cells; host or cells: HeLa cells
T2 sequence (Q07869 1-468): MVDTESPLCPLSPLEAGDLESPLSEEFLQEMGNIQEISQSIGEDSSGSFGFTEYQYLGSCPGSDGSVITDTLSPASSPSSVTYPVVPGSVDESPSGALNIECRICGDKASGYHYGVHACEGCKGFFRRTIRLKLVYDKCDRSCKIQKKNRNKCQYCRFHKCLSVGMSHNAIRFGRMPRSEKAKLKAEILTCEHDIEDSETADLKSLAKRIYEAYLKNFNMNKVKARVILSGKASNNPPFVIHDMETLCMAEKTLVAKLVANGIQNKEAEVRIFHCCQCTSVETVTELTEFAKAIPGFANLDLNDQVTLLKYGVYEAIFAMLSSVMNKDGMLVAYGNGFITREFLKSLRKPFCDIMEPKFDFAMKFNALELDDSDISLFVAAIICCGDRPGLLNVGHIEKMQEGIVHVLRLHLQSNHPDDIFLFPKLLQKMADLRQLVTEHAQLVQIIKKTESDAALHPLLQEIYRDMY
Method: as §1, §2

PPAR-γ = target: T3, PPAR-γ (Homo sapiens, UniProt P37231); experiment: PPAR-type receptor transactivation test (luciferase reporter), PPAR-γ; details: for % activation γ / AC50: cotransfected HeLa cells treated 24 hours; for % activation γ: luciferase activity, relative to reference molecule Reference 2; for Emax: HeLa, 24 h, read-out: % activation γ; for AC50: luciferase, concentration giving 50% of the activity of reference molecule
T3 construct: expressed in transfected cells; host or cells: HeLa cells
T3 sequence (P37231 1-505): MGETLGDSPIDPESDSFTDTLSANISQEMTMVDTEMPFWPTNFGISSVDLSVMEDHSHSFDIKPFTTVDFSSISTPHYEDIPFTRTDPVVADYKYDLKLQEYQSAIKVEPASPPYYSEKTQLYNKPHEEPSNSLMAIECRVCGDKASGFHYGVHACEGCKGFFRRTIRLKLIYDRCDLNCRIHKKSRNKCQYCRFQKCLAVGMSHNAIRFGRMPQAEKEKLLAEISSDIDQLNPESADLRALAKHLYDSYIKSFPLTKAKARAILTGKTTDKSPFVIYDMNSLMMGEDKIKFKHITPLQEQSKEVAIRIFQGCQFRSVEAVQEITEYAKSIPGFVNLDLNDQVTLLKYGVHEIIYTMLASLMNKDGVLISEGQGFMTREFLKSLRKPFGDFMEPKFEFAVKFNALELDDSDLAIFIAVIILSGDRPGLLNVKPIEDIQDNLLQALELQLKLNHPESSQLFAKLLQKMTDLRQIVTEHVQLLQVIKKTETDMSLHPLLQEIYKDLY
Method: as §1, §2

Row | Molecule | % activation β (PPAR-β) | % activation α (PPAR-α) | % activation γ (PPAR-γ) | Emax (PPAR-β) | Emax (PPAR-α) | Emax (PPAR-γ) | AC50 (PPAR-β) | AC50 (PPAR-α) | AC50 (PPAR-γ)
1 | 6-(2,4-diisopropylbenzoyl)napthalene-2-carboxylic acid [compound 3] | 19% | 6% | 3% | – | – | – | – | – | –
2 | CCCCOC(c1ccc2c(c1)C(C)(C)CCC2(C)C)c1ccc2cc(C(=O)O)ccc2c1 (stereo not shown) [Comparative Example 1, 6-[butoxy(5,5,8,8-tetramethyl-5,6,7,8-tetrahydronaphthalen-2-yl)methyl]naphthalene-2-carboxylic acid] | – | – | – | 28% | 0% | 7% | – | – | –
3 | COc1ccc(C(=O)c2ccc3cc(C(=O)O)ccc3c2)cc1-c1ccccc1 [Comparative Example 4, 6-(6-methoxybiphenyl-3-carbonyl)napthalene-2-carboxylic acid] | 23% | 6% | 2% | – | – | – | – | – | –
4 | COc1ccc(C(O)c2ccc(C(=O)O)cc2)cc1C12CC3CC(CC(C3)C1)C2 (stereo not shown) [Comparative Example 6, 4-[(3-adamantan-1-yl-4-methoxyphenyl)hydroxymethyl]benzoic acid] | – | – | – | 16% | 4% | 7% | – | – | –
5 | CC1(C)CCc2cc(C(=O)c3ccc4cc(C(=O)O)ccc4c3)ccc2O1 [Compound 2, 6-(2,2-dimethylchroman-6-carbonyl)naphthalene-2-carboxylic acid] | – | – | – | 280% | 48% | 190% | 700 nM | 900 nM | 1500 nM
6 | CC(C)(C)c1ccc(C(=O)c2ccc3cc(C(=O)O)ccc3c2)cc1 [Compound 3, 6-(4-tert-butylbenzoyl)naphthalene-2-carboxylic acid] | – | – | – | 277% | 63% | 148% | 300 nM | 1000 nM | 360 nM
7 | O=C(O)c1ccc2cc(C(=O)c3ccc4c(c3)CCCC4)ccc2c1 [Compound 4, 6-(5,6,7,8-tetrahydronaphthalene-2-carbonyl)naphthalene-2-carboxylic acid] | – | – | – | 291% | 40% | 174% | 500 nM | 2000 nM | 800 nM
8 | CC1(C)CCOc2ccc(C(=O)c3ccc4cc(C(=O)O)ccc4c3)cc21 [Compound 5, 6-(4,4-dimethylchroman-6-carbonyl)naphthalene-2-carboxylic acid] | – | – | – | 92% | 16% | 36% | – | – | –
9 | Cc1cccc(Nc2cc(Cl)nc(SCC(=O)O)n2)c1C [Reference 1, [4-chloro-6-(2,3-dimethylphenylamino)pyrimidin-2-ylsulphanyl]acetic acid] | – | 100% | – | – | – | – | – | – | –
10 | COc1cc(C(=O)c2ccc3cc(C(=O)O)ccc3c2)ccc1C12CC3CC(CC(C3)C1)C2 [compound 5, 6-(4-adamantan-1-yl-3-methoxybenzoyl)naphthalene-2-carboxylic acid] | – | – | – | 8% | 6% | 3% | – | – | –
11 | COc1ccc(C(=O)c2ccc(C(=O)O)cc2)cc1C12CC3CC(CC(C3)C1)C2 [compound 7, 4-(3-adamantan-1-yl-4-methoxybenzoyl)benzoic acid] | – | – | – | 23% | 0% | 0% | – | – | –
12 | C-(6-carboxynaphthalen-2-yl)-C-(5,5,8,8-tetramethyl-5,6,7,8-tetrahydronaphthalen-2-yl)methylammonium [compound 2] | 1% | 1% | 13% | – | – | – | – | – | –
